Key:
[1] = biological target: methyl halide transferase (MHT) (Batis maritima, UniProt Q9ZSZ7); details: halide ion as substrate; Attieh et al. 1995, Ni and Hager 1999; cited from earlier work
[2] = tested on: S. cerevisiae W303a lab strain; assay: Methyl iodide toxicity assay in yeast; assay type: cell-based, Saccharomyces cerevisiae; details: cultures diluted to OD600 0.05, OD600 at 24 hours, FIG. 11D
Source text: (§1) FIG. 11A-D: Methyl iodide production in recombinant S. cerevisiae. FIG. 11A. CH3I production pathway. The B. maritima MHT is expressed with a N-terminal vacuole targeting tag. The […] MHT methylates iodide ions using SAM as a methyl donor. FIG. 11B, CH3I measured in culture headspace over time. Activity on glucose-grown cells is shown. FIG. 11C, CH3I yields in grams per liter of culture per day. Values for the culturable red algae E. muricata are taken from the literature. Yields from B. maritime MHT-expressing E. coli and S. cerevisiae are calculated by comparison to standard curves. FIG. 11D, CH3I toxicity in yeast. Exponential phase cultures were diluted to an OD600 of 0.05 and commercially available CH3I was added. OD600 was measured at 24 hours of growth. The W303a lab strain is shown in filled boxes, the DNA methylation-sensitive RAD50Δ mutant is shown in open boxes.
(§2) The response of the host organism to toxic effects of an overproduced metabolite is important for development of an integrated industrial process. Methyl halides are SN2 methylating agents known to cause cytotoxic lesions in ssDNA and RNA. […]
(§3) Individual colonies were inoculated in YP media with 2% glucose and grown overnight. […] OD600 was measured by spectrometry with YP media used as a blank. […]

RAD50Δ mutant = assay type: cell-based, Saccharomyces cerevisiae; details: RAD50Δ mutant versus W303a, OD600 at 24 hours
Source text: as §1, §2, §3

A. fermentans = details: accumulation of fermentation products; cited from earlier work
[3] = tested on: methyl bromide and methyl iodide production in E. Coli; assay: Methyl halide production by heterologous MHTs expressed in E. coli (Example 8, headspace GC/MS); assay type: cell-based; details: FIG. 7
Description: Nineteen methyl halide transferase genes from various organisms were codon-optimized and introduced into E. Coli. Production of methyl bromide and methyl iodide was determined for each. […] Group II UBA; Cryptococcus neoformans var. neoformans JEC21; Oryza sativa (japonica cultivar-group); Ostreococcus tauri; Dechloromonas aromatica RCB; Coprinopsis cinerea okayama; Robiginitalea bofirmata HTCC2501; Maricaulis maris MCS10; Flavobacteria bacterium BBFL7; Vitis vinifera and; halorhodospira halophila SL1.
For each strain a single colony was picked and grown overnight (10-14 hrs) in 20 mL of LB miller in a 30 mL glass test tube with aeration (a loose cap) at 37 C and 250 rpm shaking. The culture was spun down in a swinging bucket centrifuge for 5 min @ 3000×g. The cells were resuspended in 20mL of appropriate media (10 g/L Tryptone, 5 g/L Yeast Extract, 165 mM NaX [where X=CI, Br, I]) containing 100 uM IPTG inducer. The cells were sealed with rubber stoppers and parafilm and grown at 37 C with 250 rpm shaking for 1.5 hours. Cultures were taken to the GC/MS and 100 uL of headspace gas was sampled and loaded onto the column. The method run was VOIGT.m. The number of counts for the appropriate mass (MeCl, MeBr, MeI) were reported. Cells were always grown in the presence of 30 ug/mL chloramphenicol.
Methyl halide production was measured as described in the previous Examples. […] C. neoformans JEC21 gave the best methyl bromide and methyl iodide production. Leptospirillum gave the best methyl iodide production.

[4] = tested on: methyl halide production in E. coli on chloride, bromide and iodide; assay: MHT library screen for methyl halide activity in E. coli (Example 9B); assay type: cell-based; details: library of 89 genes, FIG. 10A
Source text: As described in Example 9A, to screen for MHTs with high activity in a recombinant host, we synthesized all putative MHTs from the NCBI sequence database and assayed methyl halide production in E. colit. […] These genes were computationally codon optimized for E. coli and yeast expression and constructed using automated whole gene DNA synthesis.
Methyl halide production was sampled by analyzing the headspace gas using GC-MS (Supplementary Information).
Bacteria carrying MHT expression vectors were inoculated from freshly streaked plates and grown overnight. Cells were diluted 100-fold into media containing 1 mM IPTG and 100 mM appropriate sodium halide salt. Culture tubes were sealed with a rubber stopper and grown at 37 degrees for 3 hours. Yeast carrying MHT expression vectors were streaked on uracil dropout plates from freezer stocks (15% glycerol) and grown for 48 hours. Individual colonies were inoculated into 2 mL of synthetic complete uracil dropout media and grown overnight at 30 degrees. Cultures were next inoculated into 100 mL fresh synthetic complete uracil dropout media and grown for 24 hours. Cells were spun down and concentrated to high cell density (OD 50) in fresh YP media with 2% glucose and 100 mM sodium iodide salt. 10 mL of this concentrated culture was aliquoted into 14 mL culture tubes and sealed with a rubber stopper. […]

Question: For I [I^−, iodide], which Km [1] is on record?
Answer: 8.5 mM

Question: With CI [methyl iodide] as the molecule, how does the “level up to which yeast were resistant to deleterious methylating effects of methyl iodide” value [2] read?
Answer: > 5000 µg/mL

Question: And the “sensitivity to methyl iodide” value (RAD50Δ mutant)?
Answer: increased sensitivity

Question: Which A. fermentans growth (A. fermentans) does the source give for CCO [ethanol] here?
Answer: inhibited

Question: Which Km [1] does the source give for [Br-].[K+] [Br^−, bromide] here?
Answer: 18.5 mM

Question: With CC(=O)O [acetate] as the molecule, how does the A. fermentans growth (A. fermentans) read?
Answer: inhibited

B1: B. maritima: methyl halide transferase from Batis maritima, SEQ ID NO: 3 (protein, listed as Batis maritima)
chain: MSTVANIAPVFTGDCKTIPTPEECATFLYKVVNSGGWEKCWVEEVIPWDLGVPTPLVLHLVKNNALPNGKGLVPGCGGGYDVVAMANPERFMVGLDISENALKKARETFSTMPNSSCFSFVKEDVFTWRPEQPFDFIFDYVFFCAIDPKMRPAWGKAMYELLKPDGELITLMYPITNHEGGPPFSVSESEYEKVLVPLGFKQLSLEDYSDLAVEPRKGKEKLARWKKMNN
Question: For B1, which methyl bromide production ([3]; 165 mM NaX, 100 uM IPTG, 1.5 hours) is on record?
Answer: best

Question: And the “halide specificity of methyl halide production” value (shortened to “halide specificity”) [3]?
Answer: significant specificity for methyl bromide production

Question: And the “methyl halide activity on each ion (chloride, bromide, iodide)” value [4]?
Answer: highest activity

B2: D. aromatica: methyl halide transferase from Dechloromonas aromatica RCB, SEQ ID NO: 15 (protein, listed as Dechloromonas aromatica)
chain: MSETIKPPEQRPEHPDFWCKRFGEGVTPWDAGKVPMAFVDFVGAQTTPLNSLIPGCGSAWEAAHLAELGWPVTALDFSPLAIEKAREVLGDSPVKLVCADFFTFAPRQPLDLIYERAFLCALPRKLWADWGKQVAELLPSGARLAGFFFLCDQPKGPPFGILPAQLDELLRPNFELIEDQPVGDSVPVFAGRERWQVWRRR
Question: With B2 as the molecule, how does the “halide specificity” value [3] read?
Answer: significant specificity for methyl iodide production

B3: C. cinerea: methyl halide transferase (hypothetical protein) from Coprinopsis cinerea okayama, SEQ ID NO: 16 (protein)
chain: MADPNLAPEIRAKMQEIFKPDDRHSWDLLWKENITPWDAGDAQPSLIELIEESGLDFARKGRALVPGCGTGYDAVYLASALGLQTIGMDISESAVEAANRYRDSSGVQGADRAIFQKADFFTYKVPDEERFDLIMDHTFFCAIHPSLRPEWGQRMSELIKPGGYLITICFPMIPKVETGPPYYLRPEHYDEVLKETFEKVYDKVPTKSSENHKDKERMLVWKKK
modifications: Synthetic polypeptide of hypothetical protein of coprinopsis cinerea.
Question: For B3, which “halide specificity” value [3] is on record?
Answer: significant specificity for methyl iodide production

B4: Brassica rapa subsp. chinensis: methyl halide transferase from Brassica rapa subsp. chinensis, SEQ ID NO: 6 (protein, listed as Brassica rapa)
chain: MAEVQQNSAHINGENIIPPEDVAKFLPKTVEEGGWEKCWEDGVTPWDQGRATPLVVHLVESSSLPLGRALVPGCGGGHDVVAMASPERYVVGLDISESALEKAAETYGSSPKAKYFTFVKEDFFTWRPNELFDLIFDYVVFCAIEPETRPAWAKAMYELLKPDGELITLMYPITDHDGGPPYKVAFSTYEDVLVPVGFKAVSIEENPYSIATRKGKEKLARWKKIN
Question: With B4 as the molecule, how does the “halide specificity” value [3] read?
Answer: significant specificity for methyl bromide production
